From patent publication US20190336598A1, “METHODS FOR MODULATING INFLAMMASOME ACTIVITY AND INFLAMMATION IN THE LUNG” (UNIVERSITY OF MIAMI, priority 2016, published 2019)
Entries after “also recorded” stand apart in the source; their conditions may differ.

Legend:
Format in all cases: in vivo, C57-BL6 mice
[1] = tested on: inflammasome proteins (caspase-1, ASC, IL-1β, AIM2, HMGB1) in lungs; test: Immunoblot of inflammasome proteins in lungs after adoptive transfer of EV from TBI mice and treatment; details: vs untreated positive control; Enoxaparin 3 mg/kg or IC 100 5 mg/kg one hour after EV from TBI mice; lungs collected 24 hours after injection; p=<0.0001
Experimental: Lung and brain tissue samples were snap frozen in liquid nitrogen and stored in −80° C. 2-mm sections of right lower lung and right cortical tissue were homogenized in extraction buffer containing protease and phosphatase inhibitor cocktail (Sigma, St Louis, Mo., USA) and resolved in 4-20% Tris-TGX Criterion precasted gels (Bio-Rad, Hercules, Calif., USA) as described in de Rivero Vaccari et al. 2015 (13) using antibodies to caspase-1 (Novus Biologicals), ASC (Santa Cruz), IL-1 β (Cell Signaling), IL-18 (Abcam) AIM2 (Santa Cruz) and HMGB1 (Millipore). Quantification of band density was performed using Image Lab and all data were normalized to β-actin.
(§1) Serum-derived EV from C57BL-6 TBI and sham mice were injected into naïve C57BL-6 mice through the jugular vein at a dose of 1.0×10^10 particles per gram/body weight^48. Particle count was measured by Nanosight Tracking analysis and samples were diluted accordingly. Prior to surgery animals were anesthetized with ketamine and […]. A 1-2 cm incision was made between the jaw and the clavicle. The jugular vein was elevated and tied, followed by catheter placement. Serum-derived EV were transferred and lung and brain tissues were collected 24 hours after injection for analysis (n=5).
(§2) Serum-derived EV from TBI mice were injected into naïve C57-BL6 mice through a jugular vein injection. One hour later, Enoxaparin (3 mg/kg) (n=4) and Anti-ASC (5 mg/kg) (n=4) were administered to recipient animals. The following groups were used: 1) the naïve group received no treatment, 2) the sham saline group was used as a negative control and underwent jugular vein injection of only saline, 3) the untreated group received EV from TBI mice without any treatment and was used as a positive control, 4) the ENOX group received EV from TBI mice and Enoxaparin, and 5) the Anti-ASC group received EV from TBI mice and Anti-ASC. The order of treatment was randomized. Lung and brain tissues were collected 24 hours after injection for analysis. It should be noted that the anti-ASC antibody used in the treatment experiments was a humanized monoclonal antibody against ASC and recognizes murine, human and swine ASC.

[2] = tested on: lungs of animals delivered EV from injured mice (ALI); test: Histology (H&E) and acute lung injury scoring after adoptive transfer of EV from TBI mice and treatment; details: Enoxaparin 3 mg/kg or IC 100 5 mg/kg one hour after EV from TBI mice; for neutrophil infiltration into alveolar and interstitial space (H&E stained lung sections, FIG. 9A-D) / septal thickening (H&E stained lung sections, FIG. 9A-D): lungs 24 hours after injection; for ALI score (FIG. 9E): vs untreated group, score 0 (no injury) to 1 (severe injury), p=<0.0001
Experimental: as §1, §2
Lung tissue sections were stained by a standard hematoxylin and eosin method for histology, morphometry and ALI scoring. Lung sections were scored by a blinded pathologist using the Lung Injury Scoring System from the American Thoracic Society Workshop Report (17). Twenty random high power fields were chosen for scoring. Criteria for ALI scoring was based on number of neutrophils in the alveolar space, interstitial space, hyaline membranes, proteinaceous debris filling the airspaces and alveolar septal thickening. Based on these criteria a score between 0 (no injury) and 1 (severe injury) was given.

[3] = tested on: inflammasome proteins (caspase-1, ASC, IL-1β, AIM2, HMGB1) in lungs; test: Immunoblot of inflammasome proteins in lungs after adoptive transfer of EV from TBI mice and treatment; details: vs untreated positive control animals; Enoxaparin 3 mg/kg, IC 100 5 mg/kg; N=4 per group

Molecule	AIM2 in lungs (FIG. 8E) [1]	ASC in lungs (FIG. 8C) [1]	Caspase-1 in lungs (FIG. 8B) [1]	HMGB1 in lungs (FIG. 8F) [1]	IL-1β in lungs (FIG. 8D) [1]	neutrophil infiltration into alveolar and interstitial space (H&E stained lung sections, FIG. 9A-D) [2]	septal thickening (H&E stained lung sections, FIG. 9A-D) [2]	ALI score (FIG. 9E) [2]	IL-1β in lungs (FIG. 8D) [3]
Enoxaparin	significantly reduced	significantly reduced	significantly reduced	significantly reduced	significantly reduced	significantly less	no signs	significantly lower; also recorded: significantly decreased	reduced
IC 100: humanized monoclonal antibody against ASC; recognizes murine, human and swine ASC (antibody, V domains shown) VH: QVTLKESGPALVKPTQTLTLTCSFSGFSLSTSGMGVSWIRQPAGKGLEWLAHIYWDDDKRYNPSLKSRLTISKDSSKNQVVLTMTNMDPVDTATYSCARSTPIVANAMDYWGQGTLVTVSS VL: DIVMTQSPDSLAVSLGERATINCKASQSVDYDGDSYMNWYQQKPGQPPKLLIYAASNLESGIPARFSGSGSGTDFTLTISSLQPEDVATYYCQQSNEDPYTFGQGTKLEIK	significantly reduced	significantly reduced	significantly reduced	significantly reduced	significantly reduced	significantly less	no signs	significantly lower; also recorded: significantly decreased	reduced
